In patent US10668039B2, “Methods for treatment of adenoid cystic carcinoma” (THE CHILDREN'S MEDICAL CENTER CORPORATION, priority 2016, dated 2020):

Tested on: ACC PDX models
Assay: ATRA comparison TGI studies in ACC PDX models
Assay type: in vivo
Conditions: ATRA 8 mg/kg to 32 mg/kg; tamibarotene 2 mg/kg
Protocol: The TGI studies in ACC PDX models were repeated in order to compare the original ATRA dose (3 or 4 mg/ml) against a more physiologically relevant dose of ATRA (8 mg/kg) and an alternative retinoid Tamibarotene (originally developed for ATRA-resistant cancer settings, approved in Japan and currently in development at Syros Pharmaceuticals).

CC1(C)CCC(C)(C)c2cc(NC(=O)c3ccc(C(=O)O)cc3)ccc21 [tamibarotene, 4-[(1,1,4,4-tetramethyltetralin-6-yl)carbamoyl]benzoic acid]
tumor growth inhibition in the PDX studies: showed tumor growth inhibition
